Test results published in US20080027082A1, “USE OF ADENOSINE A1 ANTAGONISTS IN RADIOCONTRAST MEDIA INDUCED NEPHROPATHY” (priority 2006, published 2008).

Tests used:
Permeability (Table 1) = format: in vitro ADME
PGP = PGP (Homo sapiens, UniProt P08183); test: PGP-factor (Table 1); format: in vitro ADME
[1] = test system: renal hemodynamics and oxygenation; test: renal blood flow and oxygenation following radiocontrast media (iodixanol) in anesthetized rats; format: in vivo, Wistar rats
Experimental: The experimental protocol was based on a previously published methodology. The experiments were performed using adult male 3-4 months old Wistar rats. Body weight ranged from 250 to 400 g. The rats received a standard chow diet. Feeding and drinking was discontinued approx. 12 hours before the surgery. The animals were anesthetized by intraperitoneal injection of urethane solution ([…]; 6 ml per kg), and placed on a heated table to maintain body temperature at 37° C. throughout surgery and subsequent experiments. After an incision in the left groin the femoral artery was carefully prepared and cannulated to measure the mean arterial blood pressure. Another catheter was placed into the carotid artery for administration of contrast medium. Finally, an inflatable cuff was placed around the abdominal aorta above the origin of the renal arteries. A servo controlled inflation of the cuff allowed for the reduction and maintenance of the renal perfusion pressure at a preset levels. Two 500 μm diameter optical fibers were implanted into the cortex and the outer medulla of left kidney to determine local laser-Doppler fluxes and an ultrasound transit time flowprobe was placed around the renal artery of the same kidney to determine total kidney blood flow (RBF). Renal oxygen levels (oxygen partial pressure=pO2) was likewise determined locally (cortical and medullary pO2, respectively; OxyLite, Oxford Optronics). After implantation and stabilization, the experiment was started by measuring hemodynamic and oxygenation parameters under baseline conditions. Vehicle or substance 1 (5 mg/kg as an intravenous bolus) were then administered. New measurements were performed, and 30 min after vehicle or substance 1 administration, lodixanol (Visipaque 320; 1.5 mL i.a.; Amersham Buchier, Braunschweig, Germany), or vehicle was applied. The experimental groups were thus: 1. Vehicle+Vehicle (‘control’), Vehicle+Visipaque, and sunstance 1+Visipaque.

adenosine A1 receptor = target: T1, adenosine A1 receptor (Homo sapiens, UniProt P30542); test: receptor binding and enzyme profiling in a wide range of assays
T1 sequence (P30542 1-326): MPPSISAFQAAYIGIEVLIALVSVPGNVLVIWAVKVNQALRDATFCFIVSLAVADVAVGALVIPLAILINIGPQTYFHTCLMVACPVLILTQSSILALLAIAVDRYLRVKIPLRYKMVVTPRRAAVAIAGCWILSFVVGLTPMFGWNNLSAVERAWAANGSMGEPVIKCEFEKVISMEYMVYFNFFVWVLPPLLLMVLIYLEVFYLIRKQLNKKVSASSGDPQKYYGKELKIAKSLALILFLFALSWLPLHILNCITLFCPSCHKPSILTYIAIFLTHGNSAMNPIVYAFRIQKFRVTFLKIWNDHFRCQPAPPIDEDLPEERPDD
Text: (§1) The phosphodiesterase PDE4 inhibiting activity may be used for titration purposes of patients. The phosphodiesterase PDE4 inhibiting activity of the compounds described herein prevents overdosage of the selective A1 antagonist by alarming the patients with self-evident, non-serious signals like e.g. headache before serious events like e.g. CNS convulsion can occur.

[2] = steady-state plasma levels in anesthetized L-NAME pretreated rats; format: in vivo, Sprague-Dawley rats; details: rat
Experimental: The radiocontrast media-dependent acute kidney failure was induced using an experimental protocol based on that published by the group of Osswald,^22 Male Sprague-Dawley rats of approximately 300 g body weight were acclimatized for at least 1 week before the start of the chronic pretreatment with the nitric oxide synthase inhibitor N-nitro-L-arginine methyl ester (L-NAME for 7-9 weeks at a daily dose of 5 mg/kg). For the experiments, the overnight fasted rats (which had continued free access to drinking water) were anesthetized with Inactin (80 mg/kg, given i.p. as a bolus). Catheters were placed (i) in the trachea, (ii) in one jugular vein (for radiocontrast medium administration, and background saline infusion; see below), (iii) in the other jugular vein for vehicle or sunstance 1 administration, (iv) in the carotid artery for blood sampling, and part of the background saline infusion; see below), and (v) in the bladder for urine collection. The rats were kept on a heated table to maintain their body temperature at 37° C. […] The measured values of urine volume, and urine levels of Na^+ were used to calculate the rates of diuresis and natriuresis over the time intervals mentioned above.

phosphodiesterase PDE4 = phosphodiesterase PDE4 inhibition (enzyme profiling); format: biochemical; details: read-out: calculated pKi of the PDE4 inhibition (converted)
Text: as §1

[3] = test system: phosphodiesterases (PDE 1, 2, 3, 5 and 6); test: inhibition of other phosphodiesterases (enzyme profiling); format: biochemical; details: relative to PDE4 inhibition
Text: as §1

[4] = test system: radiocontrast media-dependent acute kidney failure; test: diuresis and natriuresis following radiocontrast media (diatrizoate) in anesthetized rats; format: in vivo, Sprague-Dawley rats; details: for diuresis / sodium excretion: mean ± SEM
Experimental: The radiocontrast media-dependent acute kidney failure was induced using an experimental protocol based on that published by the group of Osswald,^22 Male Sprague-Dawley rats of approximately 300 g body weight were acclimatized for at least 1 week before the start of the chronic pretreatment with the nitric oxide synthase inhibitor N-nitro-L-arginine methyl ester (L-NAME for 7-9 weeks at a daily dose of 5 mg/kg). For the experiments, the overnight fasted rats (which had continued free access to drinking water) were anesthetized with Inactin (80 mg/kg, given i.p. as a bolus). Catheters were placed (i) in the trachea, (ii) in one jugular vein (for radiocontrast medium administration, and background saline infusion; see below), (iii) in the other jugular vein for vehicle or sunstance 1 administration, (iv) in the carotid artery for blood sampling, and part of the background saline infusion; see below), and (v) in the bladder for urine collection. The rats were kept on a heated table to maintain their body temperature at 37° C. After collecting urine samples for 60-90 min for baseline measurements, the animals received vehicle or substance 1 as follows: a loading bolus of 0.15, or 1.5 mg substance 1 per kg, or vehicle, in a volume of 1 mukg, was applied intravenously, followed by a continuous intravenous infusion at a rate of […] substance 1 per kg per min, or vehicle, in a volume of 11 μL/kg·min until the end of the experiment. With these dose regimens steady-state plasma levels of substance 1 were 59±23, and 314±36 ng/mL, respectively. Ten minutes after the start of the substance 1 (or vehicle) treatment, diatrizoate (meglumine salt, Urolux, 0.61 g diatrizoate/mL, corresponding to a total iodine content of 290 mg/mL, Sanochemia Diagnostics, Neuss, Germany), prewarmed at body temperature, was infused iv over 3 min at a dose of 2.55 mL/kg, corresponding to 740 mg iodine/kg (the timepoint of contrast medium administration was defined as t0). A background saline solution was infused from the beginning and maintained at a rate of ˜1.2 mL/h per 100 g until the end of the experiments (0.24 mL/h via the arterial catheter, and 0.96 mL/h via the venous line). This infusion was required to compensate for the volume loss due to the operation, and the subsequent blood sampling, but also to insure the patency of the arterial catheter between the blood sampling timepoints. Urine samples were collected according to the following schedule: baseline (60-90 min preceding the start of substance 1, or vehicle, administration), t0-30 min (0.5 h timepoint), 30-60 min (1 h timepoint), 60-120 min (2 h timepoint), and 120-180 min (3 h timepoint). Plasma samples were taken at the end of each of the above periods. The measured values of urine volume, and urine levels of Na^+ were used to calculate the rates of diuresis and natriuresis over the time intervals mentioned above.

[5] = test system: radiocontrast media induced nephropathy; details: Shammas, 2001, Welch, 2002, Huber; cited from earlier work
[6] = Low dose, 0.5 h after CM (diatrizoate)
[7] = Low dose, 1 h after CM (diatrizoate)
[8] = Low dose, 2 h after CM (diatrizoate)
[9] = Low dose, 3 h after CM (diatrizoate)
[10] = high dose, 0.5 h after CM (diatrizoate)
[11] = high dose, 1 h after CM (diatrizoate)
[12] = high dose, 2 h after CM (diatrizoate)
[13] = high dose, 3 h after CM (diatrizoate)

Sequence of PGP (P08183 whole entry): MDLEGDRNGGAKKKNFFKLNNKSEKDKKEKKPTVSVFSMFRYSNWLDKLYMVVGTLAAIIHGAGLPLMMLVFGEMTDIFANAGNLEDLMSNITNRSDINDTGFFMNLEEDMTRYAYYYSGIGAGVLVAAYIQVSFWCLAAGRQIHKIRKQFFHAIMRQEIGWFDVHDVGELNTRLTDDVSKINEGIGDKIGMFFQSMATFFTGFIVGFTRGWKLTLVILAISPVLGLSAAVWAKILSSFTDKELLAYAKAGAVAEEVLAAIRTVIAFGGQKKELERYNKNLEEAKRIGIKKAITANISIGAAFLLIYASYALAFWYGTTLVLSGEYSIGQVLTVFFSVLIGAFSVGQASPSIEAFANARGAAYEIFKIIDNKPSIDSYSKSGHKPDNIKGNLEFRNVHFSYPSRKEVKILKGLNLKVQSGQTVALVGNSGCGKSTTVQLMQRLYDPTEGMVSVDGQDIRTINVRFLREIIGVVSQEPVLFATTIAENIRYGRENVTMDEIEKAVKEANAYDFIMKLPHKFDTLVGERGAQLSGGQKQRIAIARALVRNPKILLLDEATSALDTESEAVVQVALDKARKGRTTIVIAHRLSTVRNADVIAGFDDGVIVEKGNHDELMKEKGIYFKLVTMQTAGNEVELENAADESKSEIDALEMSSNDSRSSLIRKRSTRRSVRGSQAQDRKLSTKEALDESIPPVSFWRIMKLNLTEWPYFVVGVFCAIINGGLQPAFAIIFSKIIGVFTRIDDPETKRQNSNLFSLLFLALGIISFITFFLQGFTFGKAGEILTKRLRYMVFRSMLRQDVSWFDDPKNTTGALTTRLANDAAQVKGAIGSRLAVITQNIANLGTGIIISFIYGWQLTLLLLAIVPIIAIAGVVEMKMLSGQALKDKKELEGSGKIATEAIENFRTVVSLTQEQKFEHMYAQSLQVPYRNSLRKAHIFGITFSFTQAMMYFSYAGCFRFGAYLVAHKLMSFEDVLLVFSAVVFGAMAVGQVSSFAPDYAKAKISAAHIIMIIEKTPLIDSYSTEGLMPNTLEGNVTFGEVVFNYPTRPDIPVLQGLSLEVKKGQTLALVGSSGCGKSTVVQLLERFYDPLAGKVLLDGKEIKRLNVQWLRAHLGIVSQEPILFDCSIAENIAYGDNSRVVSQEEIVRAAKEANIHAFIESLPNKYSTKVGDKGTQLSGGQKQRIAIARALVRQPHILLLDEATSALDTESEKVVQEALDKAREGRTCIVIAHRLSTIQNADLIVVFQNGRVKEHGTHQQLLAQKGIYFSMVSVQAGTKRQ

## CCCn1c(=O)c2[nH]c(C34CC5CC(CC3C5)C4)nc2n(CCC)c1=O [KW3902, reference compound]
Permeability (Table 1)
  Permeability (%): 31.1%
PGP
  PGP-factor: 1.4

## CS(=O)(=O)O.OC1CCC(Nc2nc(-c3ccccc3)nc3[nH]ccc23)CC1 (stereo not drawn) [substance 1, 4-[(2-phenyl-7H-pyrrolo[2,3-o]pyrimidin-4-yl)amino]-trans-cyclohexanol methanesulfonate]
[1]; substance 1 5 mg/kg iv + Visipaque (FIG. 4)
  renal cortical vascular conductance: maintained this parameter at levels seen in the vehicle control group
[1]; substance 1 5 mg/kg iv + Visipaque, until the end of the experiment (FIG. 5)
  cortical pO2: significant increase
[1]; substance 1 5 mg/kg iv + Visipaque, vs. Vehicle+Visipaque, 20 min measurement (FIG. 3)
  renal cortical blood flow: sustained and significant increase
[1]; substance 1 5 mg/kg iv + Visipaque, not shown
  effect on Visipaque-induced changes of medullary blood flow and medullary vascular conductance: only partially (but significantly) prevented these effects
[1]; substance 1 5 mg/kg iv bolus 30 min before Visipaque 1.5 mL i.a., not shown
  effect on the Visipaque-induced increase in mean arterial blood pressure: partially prevented
[1]; substance 1 5 mg/kg iv bolus, not shown
  hemodynamic parameters (arterial blood pressure, RBF) before the Visipaque challenge: did not modify
Permeability (Table 1)
  Permeability (%): 37.4%
Adenosine A1 receptor
  conclusion from receptor binding and enzyme profiling: selective adenosine A1 receptor ligand with some phosphodiesterase PDE4 inhibiting activity
[2]; iv loading bolus 0.15 mg/kg, then infusion 1.5 pg per kg per min (so in the source)
  steady-state plasma level: 59 ± 23 ng/mL
[2]; iv loading bolus 1.5 mg/kg, then infusion 15 pg per kg per min (so in the source)
  steady-state plasma level: 314 ± 36 ng/mL
PGP
  PGP-factor: 1.5
Phosphodiesterase PDE4
  Ki: 750 nM
[3]
  activities on other phosphodiesterases (PDE 1, 2, 3, 5 and 6), fold lower than on PDE4: at least 25 fold
[4]; [6]
  diuresis: 27.31 ± 2.36 mL per kg body weight per h
  sodium excretion: 3039 ± 354 μmol per kg body weight per h
[4]; [7]
  diuresis: 3.87 ± 0.40 mL per kg body weight per h
  sodium excretion: 338 ± 81 μmol per kg body weight per h
[4]; [8]
  diuresis: 3.34 ± 0.42 mL per kg body weight per h
  sodium excretion: 613 ± 121 μmol per kg body weight per h
[4]; [9]
  diuresis: 3.54 ± 0.50 mL per kg body weight per h
  sodium excretion: 842 ± 121 μmol per kg body weight per h
[4]; after contrast medium (diatrizoate) administration
  persistence of the stimulating effect on diuresis: at least 3 h
[4]; after diatrizoate, throughout the experiment, not shown
  potassium excretion: not relevantly affected
[4]; after diatrizoate, not shown
  chloride excretion: stimulated
[4]; [10]
  diuresis: 28.01 ± 2.02 mL per kg body weight per h
  sodium excretion: 3301 ± 306 μmol per kg body weight per h
[4]; [11]
  diuresis: 4.97 ± 0.30 mL per kg body weight per h
  sodium excretion: 520 ± 77 μmol per kg body weight per h
[4]; [12]
  diuresis: 3.13 ± 0.27 mL per kg body weight per h
  sodium excretion: 591 ± 88 μmol per kg body weight per h
[4]; [13]
  diuresis: 3.11 ± 0.36 mL per kg body weight per h
  sodium excretion: 830 ± 91 μmol per kg body weight per h

## Cn1c(=O)c2[nH]cnc2n(C)c1=O [Aminophylline]
[5]
  protection against radiocontrast media induced nephropathy: does not appear to add a protective role

## CS(=O)(=O)O.NC(=O)[C@@H]1C[C@H](O)CN1c1nc(-c2ccccc2)nc2[nH]ccc12 [substance 2, (4S)-4-hydroxy-1-(2-phenyl-7H-pyrrolo[2,3-a]pyrimidin-4-yl)-L-prolinamide methanesulfonate]
Permeability (Table 1)
  Permeability (%): 27.0%
PGP
  PGP-factor: 10.1

## Cn1c(=O)c2[nH]cnc2n(C)c1=O [theophylline]
[5]
  protection against radiocontrast media induced nephropathy: effective
